Results as given in patent US8067445B2, “N,N-disubstituted aminoalkylbiphenyl antagonists of prostaglandin D2 receptors” (Panmira Pharmaceuticals, LLC, priority 2008, dated 2011).
pIC50: −log10 of the molar value.

How the values were obtained:
[1] = biological target: T1, human DP2 receptor (Homo sapiens, UniProt Q9Y5Y4); assay: DP2/CRTH2 radioligand binding assay ([3H]PGD2); conditions: [3H]PGD2 binding, membranes of HEK293 cells expressing human DP2; read-out: hDP2
T1 construct: expressed in transfected cells
T1 sequence (Q9Y5Y4 1-395): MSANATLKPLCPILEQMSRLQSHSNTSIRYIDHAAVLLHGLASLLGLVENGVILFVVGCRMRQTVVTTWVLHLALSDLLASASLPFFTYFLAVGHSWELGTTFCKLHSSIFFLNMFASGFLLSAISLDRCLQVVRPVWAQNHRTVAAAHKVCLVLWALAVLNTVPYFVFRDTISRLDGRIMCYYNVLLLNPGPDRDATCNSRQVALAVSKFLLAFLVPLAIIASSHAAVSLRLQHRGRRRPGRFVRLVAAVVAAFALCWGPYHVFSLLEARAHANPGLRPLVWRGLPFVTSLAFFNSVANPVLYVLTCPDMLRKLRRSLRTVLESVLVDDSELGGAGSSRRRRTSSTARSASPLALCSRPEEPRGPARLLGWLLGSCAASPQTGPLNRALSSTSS
In short: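 Membranes from HEK293 cells stably expressing recombinant human DP2 incubated 60 min at room temperature with 1 nM [3H]PGD2 and compound in pH 7.4 Hepes/MnCl2/EDTA buffer, ± 0.2% human serum albumin. Bound radioactivity measured after filtration; non-specific binding defined with 10 μM PGD2. IC50 from titration curves.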

[2] = biological target: T2, recombinant human CRTH2 receptor (Homo sapiens, UniProt Q9Y5Y4); assay: GTPγS binding assay; assay type: biochemical; conditions: +HSA (0.2% human serum albumin), 80 nM PGD2, CHO cell membranes; read-out: hDP2 GTPγS μM (+HSA)
T2 construct: expressed in transfected cells
T2 sequence (Q9Y5Y4 1-395): T1 sequence (Q9Y5Y4 1-395)
Protocol: The ability of a compound to inhibit binding of GTP to DP2 is assessed via a membrane GTPγS assay. CHO cells stably expressing the recombinant human CRTH2 receptor are resuspended in 10 mM Hepes, 7.4 containing 1 mM DTT, lysed and centrifuged at 75,000×g to pellet the membranes. The membranes are resuspended in 10 mM Hepes, 7.4 containing 1 mM DTT and 10% glycerol. […] The reactions are terminated by rapid filtration through Whatman GF/B glass fibre filter plates. The filter plates are washed 3 times with 1 ml cold Assay Buffer and dried. Scintillant is then added to the plates and the radioactivity retained on the filters is determined on a Packard TopCount (Perkin Elmer). Specific binding is determined as total radioactive binding minus non-specific binding in the absence of the ligand (80 nM PGD2). IC50s were determined using Graphpad prism analysis of drug titration curves.

[3] = biological target: T3, human DP1 receptor (Homo sapiens, UniProt Q13258); assay: DP1 radioligand binding assay ([3H]BWA868C, platelet membranes); conditions: [3H]BWA868C binding, human platelet membranes; read-out: hDP1
T3 construct: tissue Biological Specialty Corporation; host or cells: human platelet membranes
T3 sequence (Q13258 1-359): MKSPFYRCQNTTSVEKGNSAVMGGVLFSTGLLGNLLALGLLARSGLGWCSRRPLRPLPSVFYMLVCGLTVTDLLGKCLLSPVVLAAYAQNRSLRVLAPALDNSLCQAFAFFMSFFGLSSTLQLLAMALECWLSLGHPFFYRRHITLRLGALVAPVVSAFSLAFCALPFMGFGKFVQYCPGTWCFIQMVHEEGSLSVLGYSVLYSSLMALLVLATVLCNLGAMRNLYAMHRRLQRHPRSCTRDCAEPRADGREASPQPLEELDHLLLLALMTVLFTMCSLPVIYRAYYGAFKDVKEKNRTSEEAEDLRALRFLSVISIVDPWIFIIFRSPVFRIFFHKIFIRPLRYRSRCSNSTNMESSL
In short: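 Human platelet membranes (20 μg protein/well) incubated 60 min at room temperature with 2 nM [3H]BWA868C and compound in 50 mM Hepes, 10 mM MnCl2, 1 mM EDTA, pH 7.4, ± 0.2% human serum albumin. Bound radioactivity measured after filtration; nonspecific binding defined with 10 μM BWA868C; IC50 from titration curves.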

Row | pIC50 [1] | IC50 [2] | pIC50 [3] | Compound
1 | > 6.52 | < 0.3 µM | 4.52 to 6.00 | CCN(Cc1cc(C(F)(F)F)ccc1-c1cc(CC(=O)O)ccc1OC)C(=O)C1(c2ccc(Cl)cc2Cl)CC1 [Compound 1-131, [2′-({[1-(2,4-Dichloro-phenyl)-cyclopropanecarbonyl]-ethyl-amino}-methyl)-6-methoxy-4′-trifluoromethyl-biphenyl-3-yl]-acetic acid]
2 | > 6.52 | < 0.3 µM | 4.52 to 6.00 | CCN(Cc1cc(C(F)(F)F)ccc1-c1cc(CC(=O)O)cc(C(F)(F)F)c1)C(=O)C1CC1 [Compound 1-136, {2′-[(Cyclopropanecarbonyl-ethyl-amino)-methyl]-5,4′-bis-trifluoromethyl-biphenyl-3-yl}-acetic acid]
3 | > 6.52 | < 0.3 µM | 4.52 to 6.00 | CCOc1ccc(-c2ccc(-c3cc(CC(=O)O)ccc3OC)c(CN(CC)C(=O)C3CC3)c2)cn1 [Compound 1-227, [2′-[(Cyclopropanecarbonyl-ethyl-amino)-methyl]-4′-(6-ethoxy-pyridin-3-yl)-6-methoxy-biphenyl-3-yl]-acetic acid]
